Data: publication PMC13316043, “Structural basis of NSD2 degradation via targeted recruitment of SCF-FBXO22” (Nature Communications, 2026)

Biological target: T1, NSD2 (Homo sapiens, UniProt O96028)
T1 construct: endogenous in cells; host or cells: U2OS (ATCC)
T1 sequence (O96028 1-1365): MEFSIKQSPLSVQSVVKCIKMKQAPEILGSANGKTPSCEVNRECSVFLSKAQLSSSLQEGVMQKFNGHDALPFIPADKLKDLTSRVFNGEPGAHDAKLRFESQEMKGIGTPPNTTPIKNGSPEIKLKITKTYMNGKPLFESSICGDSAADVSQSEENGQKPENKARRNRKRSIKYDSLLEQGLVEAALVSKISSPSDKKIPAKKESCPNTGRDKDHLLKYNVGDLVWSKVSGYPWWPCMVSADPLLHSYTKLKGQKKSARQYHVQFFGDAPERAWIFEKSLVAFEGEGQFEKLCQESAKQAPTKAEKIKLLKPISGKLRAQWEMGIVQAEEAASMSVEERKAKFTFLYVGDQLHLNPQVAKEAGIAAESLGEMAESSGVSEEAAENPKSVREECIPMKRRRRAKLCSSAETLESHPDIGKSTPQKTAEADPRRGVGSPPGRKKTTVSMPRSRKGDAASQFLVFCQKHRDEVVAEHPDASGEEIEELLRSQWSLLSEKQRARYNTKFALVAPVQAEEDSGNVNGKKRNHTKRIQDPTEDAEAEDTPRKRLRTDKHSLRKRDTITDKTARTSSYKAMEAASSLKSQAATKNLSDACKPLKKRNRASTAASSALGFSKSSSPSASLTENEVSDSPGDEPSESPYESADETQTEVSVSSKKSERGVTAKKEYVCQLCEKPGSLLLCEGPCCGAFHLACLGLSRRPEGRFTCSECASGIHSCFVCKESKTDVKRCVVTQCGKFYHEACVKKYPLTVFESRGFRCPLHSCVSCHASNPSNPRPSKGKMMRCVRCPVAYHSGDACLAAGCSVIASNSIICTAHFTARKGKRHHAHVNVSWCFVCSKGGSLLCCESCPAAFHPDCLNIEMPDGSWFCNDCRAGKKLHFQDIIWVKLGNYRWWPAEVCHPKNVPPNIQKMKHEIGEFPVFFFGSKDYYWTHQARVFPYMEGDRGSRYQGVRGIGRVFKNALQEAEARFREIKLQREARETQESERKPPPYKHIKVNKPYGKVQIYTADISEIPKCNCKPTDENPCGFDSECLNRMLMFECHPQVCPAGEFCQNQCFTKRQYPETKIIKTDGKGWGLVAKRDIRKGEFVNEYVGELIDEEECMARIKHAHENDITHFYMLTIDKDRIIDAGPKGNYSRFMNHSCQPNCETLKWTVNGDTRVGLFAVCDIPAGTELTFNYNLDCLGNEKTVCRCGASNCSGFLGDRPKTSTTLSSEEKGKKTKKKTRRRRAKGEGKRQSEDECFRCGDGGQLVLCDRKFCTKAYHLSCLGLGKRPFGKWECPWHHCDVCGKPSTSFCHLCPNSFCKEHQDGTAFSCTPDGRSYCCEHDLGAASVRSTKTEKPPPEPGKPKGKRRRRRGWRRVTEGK
Assay: Western blot of NSD2 in U2OS cells
Assay type: cell-based
Settings: 300 nM, 6 h
Protocol: HEK293T and U2OS were obtained from ATCC and cultured in high-glucose-containing Dulbecco’s Modified Eagle’s Medium (DMEM; Gibco; cat. #11995) supplemented with 10% fetal bovine serum (VWR) and 1% penicillin/streptomycin (Gibco). Cells were treated with either UNC10415667, UNC12149, UNC12567, hemin (Sigma; cat. #H9039), or DMSO control for the indicated times and analyzed by western blot using standard procedures. Briefly, cells were lysed on ice for 15 min in NETN lysis buffer (20 mM Tris pH 8.0, 100 mM NaCl, 0.5 mM EDTA, 0.5% NP40) supplemented with 10 µg/mL aprotinin, 10 µg/mL leupeptin, 10 µg/mL pepstatin A, 1 mM sodium orthovanadate, 1 mM sodium fluoride, and 1 mM AEBSF (4-[two aminoethyl] benzenesulfonyl fluoride). Cell lysates were centrifuged at 20,000×g in a benchtop microcentrifuge at 4 °C for 10 min. Protein concentration was determined by Bradford assay (Bio-Rad; cat. #5000006). Protein concentration was normalized using Laemmli buffer. Samples were heated for 5 min at 95°C in a dry water-bath. Samples were separated on TGX stain free gels (Bio-Rad) transferred to nitrocellulose membrane and blocked in 5% non-fat dry milk (Biorad; cat. #1706404) diluted in 1x TBS-T (137 mM NaCl, 2.7 mM KCl, 25 mM Tris pH 7.6, 1% Tween-20). […]

Cc1cc(C=O)ccc1C(=O)N1CCc2cc(NC(=O)c3ccc(CN(C(=O)c4ccc5c(c4)OCC(=O)N5)C4CC4)cc3)ccc2C1 [UNC12149]
NSD2 level by western blot: undetectable
